Laboratory results: a compilation of properties of binary mixtures (doi:10.1039/c5cp04050g)

Test: xn = mol fraction of the nth substance listed
Details: 100 kPa

CCCC[n+]1ccn(C)c1.[Cl-] + NCCO
viscosity [mPa·s]
Details	293 K	298 K	303 K	303.1 K	313.1 K	323.1 K	333.1 K	333.2 K	343.2 K
x2 = 0	–	19	–	15.2	9.93	6.88	–	5.03	3.69
x2 = 0.5	–	134	–	–	–	36.7	–	–	17.9
x2 = 0.677	–	47.4	–	–	–	16.6	–	12	9.1
x2 = 0.8	36.2	28.1	22.4	–	14.9	10.5	7.41	–	5.58
